According to patent publication US8178579B2, “Dioxanes and uses thereof” (President and Fellows of Harvard College, priority 2001, dated 2012):
Entries after “also recorded” stand apart in the source; their conditions may differ.

Tests used:
[1] = system: zebrafish (Danio rerio) embryos; assay: phenotypic assay with 16-cell zebrafish embryos; assay type: in vivo; details: 60 μM, 18 h (24 h in FIG. 22B) post-fertilization
Description: To determine the effect of these compounds on whole organism development, a phenotypic assay was performed using 16-cell zebrafish (Danio rerio) embryos (Stockwell et al. Chem. Biol. 1999, 6, 71-83) with 1300 compounds from the 1,3-dioxane library. […] The folded notochord phenotype has also been observed through genetic mutant screens^32 for the gul^m208 and lev^m531 mutations. The 1,3-diol (13) may target these gene products or other proteins involved in the same biological pathway. Dissection of the pathways involved in notochord development may be complemented by small molecule ligands for proteins in those pathways.

[2] = system: microtubules in A549 cells; assay: microtubule stability to nocodazole, cold or calcium depolymerization and repolymerization; assay type: cell-based, human; details: tubacin 2 μM, ITSA1 50 μM
Description: Detection of acetylated α-tubulin and acetylated histones by immunofluorescence was performed as described in Example 6 above. For determining microtubule stability, A549 cells were treated as indicated, fixed in glutaraldehyde, and stained for acetylated α-tubulin and total α-tubulin in antibody dilution buffer (ADB, Tris-buffered saline (TBS), 0.15 M NaCl, 0.02 M Tris-Cl, pH 7.4, with 2% bovine serum albumin and 0.1% Triton-X 100). For cold-depolymerization, cells were incubated at 4° C. or 37° C. for an additional 90 minutes before fixation. For calcium depolymerization, cells were incubated at 37° C. for 10 minutes in a microtubule-stabilizing buffer (0.2% NP-40, 5 mM MgCl2, 2 mM EGTA, 2 M glycerol, 100 mM PIPES, pH 6.8) with and without the addition of CaCl2 (2 mM) before glutaraldehyde fixation. For co-localization experiments, biotubacin (50 μM) treated A549 cells were fixed in 3.7% formaldehyde in TBS and processed as for detecting acetylated α-tubulin (See Example 6 above) with biotubacin detected using streptavidin-TR (1:500). HDAC6 was detected using a rabbit polyclonal antibody (1:250-1:750; C.M.G., unpublished data) under the conditions used to detect acetylated α-tubulin (See Example 6 above). Filamentous actin in HT-1080 cells was detected using TR-conjugated phalloidin (1 μg/mL), and depolymerized actin using FITC-conjugated deoxyribonuclease (10 μg/mL), following fixation in 3.7% formaldehyde in TBS. p58 (1:100) in NIH-3T3 cells was detected after fixation in 3.7% formaldehyde in TBS. Images for these experiments were collected on a Zeiss LSM510 confocal scanning laser microscope at the appropriate wavelengths using the accompanying software and processed with Adobe Photoshop. Deconvoluted serial images of TSA and DMSO treated A549 cells were obtained by taking sections (8μ) on a Zeiss Axioskop 2 microscope using an AxioCam camera and the accompanying software. Rat hippocampal neuronal cultures were fixed at room temperature for 15 min in phosphate-buffered saline (PBS) containing 4% paraformaldehyde. […]

[3] = system: α-tubulin acetylation in the presence of ITSA1; details: cited from earlier work
[4] = system: α-tubulin deacetylation; assay: acetylated α-tubulin in cells (AcTubulin cytoblot, immunofluorescence, Western blot); assay type: cell-based, human; details: A549 (also BS-C-1) cells, tubacin/JCWII114, niltubacin/JCWII153 2 μM, TSA 100 nM-4 μM, library ~2-5 μM, 18 h
Description: (§1) A549 cells were seeded at a density of 4,000 cells/50 μl in DMEM+ in white tissue culture-treated 384-well plates (Nalge Nunc) using a Multidrop 384 liquid dispenser (Labsystems). Library small molecules were pinned twice (100-150 nl/pin) from ˜1 mM stock solutions (DMSO) and incubated for 18 hours. For the ITSA1+AcTubulin assay, ITSA1 (50 μM) was added four hours after pin-transfer of library molecules. Media was aspirated with a 16-channel wand. For the acetylated α-tubulin cytoblot (AcTubulin), 40 μl/well of fixation solution (3.7% formaldehyde (1:10 from 37% stock) in Tris-buffered saline (TBS, 0.15 M NaCl, 0.02 M Tris-Cl, pH 7.4) was added and plates incubated for twenty minutes at room temperature. After aspiration, 30 μl 100% methanol (−20° C.) was added and incubated for five minutes at room temperature. After aspirating and washing three times with 90 μl of antibody dilution buffer (ADB, TBS/2% bovine serum albumin, 0.1% TritonX-100) the wells were blocked for twenty minutes in ADB. After aspirating, 20 μl/well of ADB containing anti-acetylated α-tubulin antibody (mouse; 1:1000) and anti-mouse IgG horseradish peroxidase (HRP)-conjugated antibody (1:750) was added and incubated overnight (4° C.). For the anti-acetyl lysine cytoblot (AcLysine), 40 μl/well of fixation solution (95% ethanol/5% acetic acid, −20° C.) was added and plates incubated for five minutes at room temperature. Wells were aspirated, washed, and blocked in ADB as for the AcTubulin protocol. After aspirating, 20 μl/well of ADB containing anti-acetylated lysine (rabbit; 1:375) and anti-rabbit IgG-HRP conjugated antibody (1:750) was added and incubated overnight (4° C.). For the anti-acetylated histone H3 (AcHistH3) and anti-acetylated histone H4 (AcHistH4) cytoblots, cells were fixed, washed, and blocked in ADB as for the AcLysine cytoblot. After aspirating, 20 μl/well of ADB containing anti-acetylated histone H3 antibody (rabbit, 1:500) or anti-acetylated histone H4 antibody (rabbit, 1:500) was added and incubated for two hours at room temperature. Wells were aspirated and washed twice with 80 μl of ADB. After aspirating, 20 μl/well of ADB containing anti-rabbit IgG-HRP conjugated antibody (1:1000) was added and incubated for two hours (room temperature). For the AcTubulin and AcLysine assays, plates were washed three times with TBS before adding 20 μl/well of enhanced chemiluminescent (ECL) mixture. For the AcHistH3 and AcHistH4 assays, plates were washed three times with 80 μl TBS with 1% Triton X-100 and once with 80 μl TBS before adding 20 μl/well of ECL mixture. Plates were read on an Analyst plate reader (LJL Biosystems) with an integration time of 0.1 seconds.
(§2) 1,3-dioxanes from single polystyrene macrobeads were prepared as 1-2 mM stock solutions in DMSO as described [Hubbert, C., Guardiola, A., Shao, R., Kawaguchi, Y., Ito, A., Nixon, A., Yoshida, M., Wang, X. F., and Yao, T. P. (2002). HDAC6 is a microtubule-associated deacetylase. Nature 417, 455-458]. Bead decoding and structure determination were as described [See for example, Hubbert, C., Guardiola, A., Shao, R., Kawaguchi, Y., Ito, A., Nixon, A., Yoshida, M., Wang, X. F., and Yao, T. P. (2002). HDAC6 is a microtubule-associated deacetylase. Nature 417, 455-458; and Piperno, G., LeDizet, M., and Chang, X. J. (1987). Microtubules containing acetylated alpha-tubulin in mammalian cells in culture. J. Cell Biol. 104, 289-302]. Small molecules (˜2-5 μM) of interest were retested using a sample from the plate of stock solutions by fluorescence microscopy and comparison to the effects of trichostatin (300 nM to 1 μM).
(§3) A549 cells were seeded at a density of 50,000/200 μl in DMEM+ on the surface of glass coverslips on top of Parafilm in a 10 cm dish and allowed to attach overnight. For detection of acetylated α-tubulin, cells were permeabilized and fixed with 100 mM K-PIPES, pH 6.8, 10 mM EGTA, 1 mM MgCl2, 0.2% triton X-100, 0.2% glutaraldehyde for fifteen minutes. […]

[5] = system: histone deacetylation; assay: acetylated lysine / acetylated histone in cells (AcLysine cytoblot, immunofluorescence, Western blot); assay type: cell-based, human; details: A549 (also BS-C-1) cells, tubacin, niltubacin 2 μM, histacin 20 μM, library ~2-5 μM, 18 h
Description: as §1, §2, §3

[6] = system: α-tubulin acetylation in the presence of ITSA1; assay: ITSA1+AcTubulin assay: suppression of induced acetylation by ITSA1; assay type: cell-based, human; details: ITSA1 50 μM, A549 cells
Description: A549 cells were seeded at a density of 4,000 cells/50 μl in DMEM+ in white tissue culture-treated 384-well plates (Nalge Nunc) using a Multidrop 384 liquid dispenser (Labsystems). Library small molecules were pinned twice (100-150 nl/pin) from ˜1 mM stock solutions (DMSO) and incubated for 18 hours. For the ITSA1+AcTubulin assay, ITSA1 (50 μM) was added four hours after pin-transfer of library molecules. Media was aspirated with a 16-channel wand. […] Plates were read on an Analyst plate reader (LJL Biosystems) with an integration time of 0.1 seconds.
Bromodeoxyuridine labeling and fluorescence-activated cell sorting (FACS) were performed as described (K. M. Koeller et al., Chemistry & Biology, 10 (5) (2003) pp. 397-410). […]

For `[O-][n+]1ccccc1SC[C@@H](O)[C@@H](c1ccccc1)[C@@H](O)c1ccc(CO)cc1` (racemic) [compound 13, (±)-(1R,2S,3S)-1-[4-(hydroxymethyl)phenyl]-4-[(1-oxido-2-pyridinyl)thio]-2-phenyl-1,3-butanediol], which “developmental phenotype of zebrafish embryos” value [1] is on record?
The value was “causes a wavy notochord phenotype; also recorded: developed folds in the anterior trunk region of the notochord”.

For `O=C(c1ccc(Cl)cc1Cl)n1nnc2ccccc21` [ITSA1, reference compound], which “polymerization of microtubules after removal of nocodazole” value [2] is on record?
The value was “neither tubacin nor ITSA1 (50 μM; 30 minutes) prevents the repolymerization of microtubules; also recorded: neither tubacin nor ITSA1 prevented the polymerization of microtubules”.

What about the “suppression by ITSA1, stated as known” value [3] of the same compound?
The value was “suppresses (reduces) the ability of TSA to increase acetylation levels of both α-tubulin and histones”.

Which results are given for `Nc1ccccc1NC(=O)CCCCCC(=O)Nc1cccc([C@@H]2O[C@H](CN3CCN(Cc4ccccc4)CC3)C[C@H](c3ccc(CO)cc3)O2)c1` [histacin]?
effect on tubulin deacetylation / α-tubulin acetylation in cells [4]: without affecting α-tubulin acetylation levels; effect on tubulin deacetylation / α-tubulin acetylation in cells ([4]; listed as 410 F1): no effect on α-tubulin acetylation; effect on histone deacetylation / lysine or histone acetylation in cells [5]: increased acetylated histone levels; effect on histone deacetylation / lysine or histone acetylation in cells ([5]; listed as 410 F1): strongly increased lysine acetylation; suppression of the induced acetylation by ITSA1 [6]: cannot be suppressed by ITSA1
